What was measured:
[1] = Stability of sodium 4-phenylbutyrate in unit-dose type containers (liquid chromatography); assay type: physicochemical; conditions: PE, COC/PE; 40° C., 1 month (Table 1-5)
Procedure: An aqueous composition (formulation 2-1) shown in Table 1-4 was prepared through a usual method to fill a 0.5-mL volume polyethylene (PE) unit-dose type container and a unit-dose type resin container made of a mixture of a cyclic olefin copolymer (COC) and polyethylene (PE) by 0.5 mL each.
Liquid chromatography was used to quantify sodium 4-phenylbutyrate. 20 μL of 0.02 w/v % sodium 4-phenylbutyrate solution was used as a standard solution, and 20 μL of a formulation 2-1 diluted 10 times with a mobile phase was used as a sample solution. The standard solution and the sample solution were each placed on a reverse-phase column (YMC-Pack ODS-A (I.D. 4.6 mm×150 mm, 5 μm) manufactured by YMC CO., LTD.) maintained at 30° C., and eluted with a 0.2% formic acid solution-acetonitrile mixture as a mobile phase. Detection was performed with an ultraviolet absorptiometer (measurement wavelength: 260 nm). Thereafter, the peak area of sodium 4-phenylbutyrate was measured for the standard solution and the sample solution, and the concentration of sodium 4-phenylbutyrate was determined for the formulation 2-1 immediately after preparation and after storage at 40° C. for 1 month using Equation 3 below.

[2] = Stability of sodium 4-phenylbutyrate in multi-dose type containers (liquid chromatography); assay type: physicochemical; conditions: PE, PP, PET; 60° C., 1 week (Table 1-2)
Procedure: Each aqueous composition (formulations 1-0 to 1-4) shown in Table 1-1 was prepared through a usual method to fill 5-mL volume multi-dose type containers made of polyethylene (PE), polypropylene (PP), and polyethylene terephthalate (PET) by 5 mL each.
Liquid chromatography was used to quantify sodium 4-phenylbutyrate. 10 μL of 0.05 w/v % sodium 4-phenylbutyrate solution was used as a standard solution, and 10 μL of a formulation diluted 10 times with a mobile phase was used as a sample solution. The standard solution and the sample solution were each placed on a reverse-phase column (YMC-Pack ODS-A (I.D. 4.6 mm×150 mm, 5 μm) manufactured by YMC CO., LTD.) maintained at 30° C., and eluted with a 0.2% formic acid solution-acetonitrile mixture as a mobile phase. Detection was performed with an ultraviolet absorptiometer (measurement wavelength: 260 nm). Thereafter, the peak area of sodium 4-phenylbutyrate was measured for the standard solution and the sample solution, and the concentration of sodium 4-phenylbutyrate was determined for each formulation immediately after preparation and after storage at 60° C. for 1 week using Equation 1 below.

O=C([O-])CCCc1ccccc1.[Na+] [sodium 4-phenylbutyrate, Sodium 4-phenylbutyrate]
Stability of sodium 4-phenylbutyrate itself among the container resins [1]: no difference in stability
Stability of sodium 4-phenylbutyrate itself among the container resins [2]: no difference in stability
